The values that follow come from ChEMBL document CHEMBL1141686, “Discovery of a novel class of PPARdelta partial agonists” (Bioorg Med Chem Lett, 2008).

This assay addresses T1, Peroxisome proliferator-activated receptor alpha (Homo sapiens, UniProt Q07869).
T1 sequence (Q07869 whole entry): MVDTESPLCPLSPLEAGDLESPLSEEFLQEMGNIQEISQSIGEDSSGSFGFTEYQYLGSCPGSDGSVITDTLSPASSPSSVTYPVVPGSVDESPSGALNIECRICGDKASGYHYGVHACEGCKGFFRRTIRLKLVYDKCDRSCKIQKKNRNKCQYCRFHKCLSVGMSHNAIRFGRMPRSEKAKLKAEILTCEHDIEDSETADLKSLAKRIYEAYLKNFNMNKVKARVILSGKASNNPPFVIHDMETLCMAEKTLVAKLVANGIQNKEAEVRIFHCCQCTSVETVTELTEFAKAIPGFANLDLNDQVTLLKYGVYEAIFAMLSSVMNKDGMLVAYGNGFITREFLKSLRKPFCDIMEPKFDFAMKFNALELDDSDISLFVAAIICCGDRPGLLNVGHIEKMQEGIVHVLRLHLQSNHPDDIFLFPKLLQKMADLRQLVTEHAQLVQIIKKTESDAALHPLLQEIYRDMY

As a reminder, the IC50 is the concentration at which inhibition is half-maximal. Low values mean higher potency, high ones lower potency. Turning to `Cc1ccc(NC(=O)c2cccc(S(=O)(=O)n3ccc4cccc(Cl)c43)c2)c(C(=O)O)c1`, half-maximal inhibition (IC50) was put at 3.16 µM.

For the molecule `Cc1ccc(NC(=O)c2cccc(S(=O)(=O)n3ccc4cccc(C)c43)c2)c(C(=O)O)c1`, the IC50 was 1.58 µM.

On to `COc1ccc2ccn(S(=O)(=O)c3cccc(C(=O)Nc4ccc(C)cc4C(=O)O)c3)c2c1`, for which the IC50 was 3.98 µM.

`COc1cccc2ccn(S(=O)(=O)c3cccc(C(=O)Nc4ccc(C)cc4C(=O)O)c3)c12`: the IC50 is greater than 10 µM.

For the molecule `COc1cccc2c1ccn2S(=O)(=O)c1cccc(C(=O)Nc2ccc(C)cc2C(=O)O)c1`, the IC50 was 1.26 µM.

The molecule `COc1ccc2c(ccn2S(=O)(=O)c2cccc(C(=O)Nc3ccc(Cl)cc3C(=O)O)c2)c1` showed a concentration for half-maximal inhibition (IC50) of 3.16 µM.

`COc1ccc2c(ccn2S(=O)(=O)c2cccc(C(=O)Nc3ccc(C)cc3C(=O)O)c2)c1` showed an IC50 of 7.94 µM.

`Cc1ccc(NC(=O)c2cccc(S(=O)(=O)n3ccc4ccc(Cl)cc43)c2)c(C(=O)O)c1`: the midpoint of inhibition, the IC50, lay at 3.16 µM.

`Cc1ccc(NC(=O)c2cccc(S(=O)(=O)n3ccc4c(C)cccc43)c2)c(C(=O)O)c1` had an IC50 of 1 µM.

For `Cc1cccc(C(=O)O)c1NC(=O)c1cccc(S(=O)(=O)N2CCc3ccccc3C2)c1`, the IC50 is greater than 10 µM.

Consider `Cc1ccc(NC(=O)c2cccc(S(=O)(=O)n3ccc4cc(C)ccc43)c2)c(C(=O)O)c1`, for which 1 µM corresponded to half-maximal inhibition (IC50).

The molecule `Cc1cccc(NC(=O)c2cccc(S(=O)(=O)N3CCc4ccccc4C3)c2)c1C(=O)O` gave an IC50 greater than 10 µM.

For the molecule `O=C(O)COc1cccc2c1CCN(S(=O)(=O)c1cccc(C(=O)Nc3ccc(Cl)cc3C(=O)O)c1)C2`, half-maximal inhibition (IC50) required 5.01 µM.

As for `COc1ccc2ccn(S(=O)(=O)c3cccc(C(=O)Nc4ccc(Cl)cc4C(=O)O)c3)c2c1`, the IC50 was 1.58 µM.

`COc1cccc2c1ccn2S(=O)(=O)c1cccc(C(=O)Nc2ccc(Cl)cc2C(=O)O)c1` showed an IC50 of 0.794 µM.
